According to ChEMBL document CHEMBL1697781, “Assessment of the health effects of chemicals in humans: II. Construction of an adverse effects database for QSAR modeling” (Curr Drug Discov Technol, 2004):

Key:
Details in all cases: human; call rule not given here
Hepatotoxicity [1] = assay: FDA HLAED, serum glutamic oxaloacetic transaminase (SGOT) increase
Hepatotoxicity [2] = assay: FDA HLAED, liver enzyme composite activity
Hepatotoxicity [3] = assay: FDA HLAED, lactate dehydrogenase (LDH) increase
Hepatotoxicity [4] = assay: FDA HLAED, serum glutamic pyruvic transaminase (SGPT) increase
Hepatotoxicity [5] = assay: FDA HLAED, alkaline phosphatase increase
Hepatotoxicity [6] = assay: FDA HLAED, gamma-glutamyl transferase (GGT) increase
For GGT Increase - Index Value in this document: reference of the scale not given here.
For LDH Increase - Index Value in this document: reference of the scale not given here.

SMILES: C[C@H]1C[C@H]2[C@@H]3CCC4=CC(=O)C=C[C@]4(C)[C@@]3(F)[C@@H](O)C[C@]2(C)[C@@]1(O)C(=O)CCl [CLOBETASOL]
- SGOT Increase - Activity Score (Hepatotoxicity [1]): Inactive
- SGOT Increase - Index Value (Hepatotoxicity [1]): 0
- SGOT Increase - Number of Reports (Hepatotoxicity [1]): < 4
- Composite Activity - Active (Hepatotoxicity [2]): 0
- Composite Activity - Marginal (Hepatotoxicity [2]): 0
- Composite Activity - Score (Hepatotoxicity [2]): Inactive
- LDH Increase - Activity Score (Hepatotoxicity [3]): Inactive
- LDH Increase - Index Value (Hepatotoxicity [3]): 0
- LDH Increase - Number of Reports (Hepatotoxicity [3]): < 4
- SGPT Increase - Activity Score (Hepatotoxicity [4]): Inactive
- SGPT Increase - Index Value (Hepatotoxicity [4]): 0
- SGPT Increase - Number of Reports (Hepatotoxicity [4]): < 4
- Alkaline Phosphatase Increase - Activity Score (Hepatotoxicity [5]): Inactive
- Alkaline Phosphatase Increase - Index Value (Hepatotoxicity [5]): 0
- Alkaline Phosphatase Increase - Number of Reports (Hepatotoxicity [5]): < 4
- GGT Increase - Activity Score (Hepatotoxicity [6]): Inactive
- GGT Increase - Index Value (Hepatotoxicity [6]): 0
- GGT Increase - Number of Reports (Hepatotoxicity [6]): < 4

SMILES: CC(C)/N=c1\cc2n(-c3ccc(Cl)cc3)c3ccccc3nc-2cc1Nc1ccc(Cl)cc1 [CLOFAZIMINE]
- SGOT Increase - Activity Score (Hepatotoxicity [1]): Active
- SGOT Increase - Index Value (Hepatotoxicity [1]): 76.9
- SGOT Increase - Number of Reports (Hepatotoxicity [1]): < 4
- Composite Activity - Active (Hepatotoxicity [2]): 4
- Composite Activity - Marginal (Hepatotoxicity [2]): 0
- Composite Activity - Score (Hepatotoxicity [2]): Active
- LDH Increase - Activity Score (Hepatotoxicity [3]): Inactive
- LDH Increase - Index Value (Hepatotoxicity [3]): 25.6
- LDH Increase - Number of Reports (Hepatotoxicity [3]): < 4
- SGPT Increase - Activity Score (Hepatotoxicity [4]): Active
- SGPT Increase - Index Value (Hepatotoxicity [4]): 102.6
- SGPT Increase - Number of Reports (Hepatotoxicity [4]): >= 4
- Alkaline Phosphatase Increase - Activity Score (Hepatotoxicity [5]): Active
- Alkaline Phosphatase Increase - Index Value (Hepatotoxicity [5]): 76.9
- Alkaline Phosphatase Increase - Number of Reports (Hepatotoxicity [5]): < 4
- GGT Increase - Activity Score (Hepatotoxicity [6]): Active
- GGT Increase - Index Value (Hepatotoxicity [6]): 51.3
- GGT Increase - Number of Reports (Hepatotoxicity [6]): < 4

SMILES: CN(C)CCCN1c2ccccc2CCc2ccc(Cl)cc21 [CLOMIPRAMINE]
- SGOT Increase - Activity Score (Hepatotoxicity [1]): Inactive
- SGOT Increase - Index Value (Hepatotoxicity [1]): 0
- SGOT Increase - Number of Reports (Hepatotoxicity [1]): < 4
- Composite Activity - Active (Hepatotoxicity [2]): 0
- Composite Activity - Marginal (Hepatotoxicity [2]): 0
- Composite Activity - Score (Hepatotoxicity [2]): Inactive
- LDH Increase - Activity Score (Hepatotoxicity [3]): Inactive
- LDH Increase - Index Value (Hepatotoxicity [3]): 0
- LDH Increase - Number of Reports (Hepatotoxicity [3]): < 4
- SGPT Increase - Activity Score (Hepatotoxicity [4]): Inactive
- SGPT Increase - Index Value (Hepatotoxicity [4]): 0
- SGPT Increase - Number of Reports (Hepatotoxicity [4]): < 4
- Alkaline Phosphatase Increase - Activity Score (Hepatotoxicity [5]): Inactive
- Alkaline Phosphatase Increase - Index Value (Hepatotoxicity [5]): 0
- Alkaline Phosphatase Increase - Number of Reports (Hepatotoxicity [5]): < 4
- GGT Increase - Activity Score (Hepatotoxicity [6]): Inactive
- GGT Increase - Index Value (Hepatotoxicity [6]): 0
- GGT Increase - Number of Reports (Hepatotoxicity [6]): < 4

SMILES: CN1CCN(C2=Nc3cc(Cl)ccc3Nc3ccccc32)CC1 [CLOZAPINE]
- SGOT Increase - Activity Score (Hepatotoxicity [1]): Active
- SGOT Increase - Index Value (Hepatotoxicity [1]): 45.1
- SGOT Increase - Number of Reports (Hepatotoxicity [1]): >= 4
- Composite Activity - Active (Hepatotoxicity [2]): 5
- Composite Activity - Marginal (Hepatotoxicity [2]): 0
- Composite Activity - Score (Hepatotoxicity [2]): Active
- LDH Increase - Activity Score (Hepatotoxicity [3]): Active
- LDH Increase - Index Value (Hepatotoxicity [3]): 16.8
- LDH Increase - Number of Reports (Hepatotoxicity [3]): >= 4
- SGPT Increase - Activity Score (Hepatotoxicity [4]): Active
- SGPT Increase - Index Value (Hepatotoxicity [4]): 42.9
- SGPT Increase - Number of Reports (Hepatotoxicity [4]): >= 4
- Alkaline Phosphatase Increase - Activity Score (Hepatotoxicity [5]): Active
- Alkaline Phosphatase Increase - Index Value (Hepatotoxicity [5]): 34.2
- Alkaline Phosphatase Increase - Number of Reports (Hepatotoxicity [5]): >= 4
- GGT Increase - Activity Score (Hepatotoxicity [6]): Active
- GGT Increase - Index Value (Hepatotoxicity [6]): 11.4
- GGT Increase - Number of Reports (Hepatotoxicity [6]): >= 4

SMILES: CC1(C)S[C@@H]2[C@H](NC(=O)C3(N)CCCCC3)C(=O)N2[C@H]1C(=O)O [CYCLACILLIN]
- SGOT Increase - Activity Score (Hepatotoxicity [1]): Inactive
- SGOT Increase - Index Value (Hepatotoxicity [1]): 0
- SGOT Increase - Number of Reports (Hepatotoxicity [1]): < 4
- Composite Activity - Active (Hepatotoxicity [2]): 0
- Composite Activity - Marginal (Hepatotoxicity [2]): 0
- Composite Activity - Score (Hepatotoxicity [2]): Inactive
- LDH Increase - Activity Score (Hepatotoxicity [3]): Inactive
- LDH Increase - Index Value (Hepatotoxicity [3]): 0
- LDH Increase - Number of Reports (Hepatotoxicity [3]): < 4
- SGPT Increase - Activity Score (Hepatotoxicity [4]): Inactive
- SGPT Increase - Index Value (Hepatotoxicity [4]): 0
- SGPT Increase - Number of Reports (Hepatotoxicity [4]): < 4
- Alkaline Phosphatase Increase - Activity Score (Hepatotoxicity [5]): Inactive
- Alkaline Phosphatase Increase - Index Value (Hepatotoxicity [5]): 0
- Alkaline Phosphatase Increase - Number of Reports (Hepatotoxicity [5]): < 4
- GGT Increase - Activity Score (Hepatotoxicity [6]): Inactive
- GGT Increase - Index Value (Hepatotoxicity [6]): 0
- GGT Increase - Number of Reports (Hepatotoxicity [6]): < 4

SMILES: Cc1ccccc1N1CCN(CCc2nnc3n2CCCC3)CC1 [DAPIPRAZOLE]
- SGOT Increase - Activity Score (Hepatotoxicity [1]): Inactive
- SGOT Increase - Index Value (Hepatotoxicity [1]): 0
- SGOT Increase - Number of Reports (Hepatotoxicity [1]): < 4
- Composite Activity - Active (Hepatotoxicity [2]): 0
- Composite Activity - Marginal (Hepatotoxicity [2]): 0
- Composite Activity - Score (Hepatotoxicity [2]): Inactive
- LDH Increase - Activity Score (Hepatotoxicity [3]): Inactive
- LDH Increase - Index Value (Hepatotoxicity [3]): 0
- LDH Increase - Number of Reports (Hepatotoxicity [3]): < 4
- SGPT Increase - Activity Score (Hepatotoxicity [4]): Inactive
- SGPT Increase - Index Value (Hepatotoxicity [4]): 0
- SGPT Increase - Number of Reports (Hepatotoxicity [4]): < 4
- Alkaline Phosphatase Increase - Activity Score (Hepatotoxicity [5]): Inactive
- Alkaline Phosphatase Increase - Index Value (Hepatotoxicity [5]): 0
- Alkaline Phosphatase Increase - Number of Reports (Hepatotoxicity [5]): < 4
- GGT Increase - Activity Score (Hepatotoxicity [6]): Inactive
- GGT Increase - Index Value (Hepatotoxicity [6]): 0
- GGT Increase - Number of Reports (Hepatotoxicity [6]): < 4

SMILES: COc1cccc2c1C(=O)c1c(O)c3c(c(O)c1C2=O)C[C@@](O)(C(C)=O)C[C@@H]3O[C@H]1C[C@H](N)[C@H](O)[C@H](C)O1 [DAUNORUBICIN]
- SGOT Increase - Activity Score (Hepatotoxicity [1]): Inactive
- SGOT Increase - Index Value (Hepatotoxicity [1]): 0
- SGOT Increase - Number of Reports (Hepatotoxicity [1]): < 4
- Composite Activity - Active (Hepatotoxicity [2]): 0
- Composite Activity - Marginal (Hepatotoxicity [2]): 0
- Composite Activity - Score (Hepatotoxicity [2]): Inactive
- LDH Increase - Activity Score (Hepatotoxicity [3]): Inactive
- LDH Increase - Index Value (Hepatotoxicity [3]): 0
- LDH Increase - Number of Reports (Hepatotoxicity [3]): < 4
- SGPT Increase - Activity Score (Hepatotoxicity [4]): Inactive
- SGPT Increase - Index Value (Hepatotoxicity [4]): 0
- SGPT Increase - Number of Reports (Hepatotoxicity [4]): < 4
- Alkaline Phosphatase Increase - Activity Score (Hepatotoxicity [5]): Inactive
- Alkaline Phosphatase Increase - Index Value (Hepatotoxicity [5]): 0
- Alkaline Phosphatase Increase - Number of Reports (Hepatotoxicity [5]): < 4
- GGT Increase - Activity Score (Hepatotoxicity [6]): Inactive
- GGT Increase - Index Value (Hepatotoxicity [6]): 0
- GGT Increase - Number of Reports (Hepatotoxicity [6]): < 4
